From patent US8013187B2, “2-cyclopenten-1-one oxime derivatives inhibiting production of TNF-α” (Amorepacific Corporation, priority 2004, dated 2011) come the findings set out here.

One data set has as its target T1, PDE4A (Homo sapiens, UniProt P27815).
T1 construct: purchased Fab Gennix International Inc. (Frisco, Tex./USA)
Kind of data set: Inhibition of PDE4 isozymes ([3H]cAMP SPA): PDE4A. The format is biochemical. The following applies: @ 0.5 μg/ml, pH 7.4 Tris buffer. How it is done:
(§1) Inhibition of PDE4 Isozymes: Compounds of the instant invention were evaluated for their ability to inhibit isozymes of phosphodiesterase 4 (PDE4) obtained from Fab Gennix International Inc. (Frisco, Tex./USA) according to a literature method. […] In brief, a compound at a designated dose was assayed for their ability to inhibit the hydrolysis of cAMP by a PDE4 isozyme in pH 7.4 Tris buffer. The resulting level of cAMP was determined by the scintillation proximity assay (SPA) using a SPA kit from Amersham Biosciences according to the supplier's instruction manual (TRKQ7090 Phosphodiesterase [^3H]cAMP SPA enzyme assay).

Data set [1] deals with production of TNF-α in rat PBMCs. Kind of data set: Inhibition of TNF-α production in rat PBMCs (LPS/IFN-γ stimulated, ELISA). To be noted: PBMC; rat PBMCs, LPS + IFN-γ, 18 hours. The format is cell-based. How it is done: (§2) Compounds of this invention were evaluated for their ability to inhibit the production of TNF-α in stimulated immune cells. […] Compounds of the present invention were evaluated for their therapeutic activity in animal models for inflammatory or immunological disorders. Also compounds of this invention were assayed for their ability to inhibit PDE4 isozymes.
Inhibition of TNF-α Production in Rat PBMCs: Compounds of the present invention were evaluated for their ability to inhibit the production of TNF-α in rat peripheral blood mononuclear cells (PBMCs) as described in the literature. [Exp. Geront. vol 37, 235-247 (2002)] In brief, 6 ml rat blood drawn from the abdominal vein as treated with ACD (acid/citrate/dextrose) was carefully added in a tube containing 6 ml Ficoll 1077, and the tube was centrifuged for 30 min at 1500 rpm (415 G) at room temperature. The cell fraction (middle fraction) was suspended in a 50 ml tube containing phosphate buffered saline (PBS). The tube was centrifuged for 5 min at 2000 rpm (737 G). The resulting pellet was suspended in 6 ml PBS and 6 ml Ficoll 1077, and centrifuged for 30 min at 1500 rpm (415 G) at room temperature to remove remaining plasma. The cell fraction was suspended in PBS and centrifuged for 5 min at 2000 rpm. Such a washing was repeated twice. Then the collected cells were suspended in 10 ml RPMI-1640 containing 10% FBS and further diluted to contain 4×10^6 cells per ml. The cell suspension was dispensed into a 96-well plate at 100 μl per well, which was pre-supplemented with 1 μl of either DMSO (placebo) or a DMSO stock solution containing a designated concentration of a compound of this invention. The plate was cultured for an hour at 37° C. under 5% CO2 and 95% O2. To each well, was added 100 μl RPMI-1640 containing 0.1 μg/ml LPS, 5 U/ml IFN-γ, and 10% FBS. Then the plate was subjected to a culture for 18 hours at 37° C. under 5% CO2 and 95% O2. An aliquot of the supernatant from each well was subjected to an ELISA assay to determine the TNF-α level in the well.
Background: In an ELISA, binding on a coated surface is turned into a signal by an enzyme label.

The target of another data set is T2, PDE4D (Homo sapiens, UniProt Q08499).
T2 construct: purchased Fab Gennix International Inc. (Frisco, Tex./USA)
T2 sequence (Q08499 whole entry): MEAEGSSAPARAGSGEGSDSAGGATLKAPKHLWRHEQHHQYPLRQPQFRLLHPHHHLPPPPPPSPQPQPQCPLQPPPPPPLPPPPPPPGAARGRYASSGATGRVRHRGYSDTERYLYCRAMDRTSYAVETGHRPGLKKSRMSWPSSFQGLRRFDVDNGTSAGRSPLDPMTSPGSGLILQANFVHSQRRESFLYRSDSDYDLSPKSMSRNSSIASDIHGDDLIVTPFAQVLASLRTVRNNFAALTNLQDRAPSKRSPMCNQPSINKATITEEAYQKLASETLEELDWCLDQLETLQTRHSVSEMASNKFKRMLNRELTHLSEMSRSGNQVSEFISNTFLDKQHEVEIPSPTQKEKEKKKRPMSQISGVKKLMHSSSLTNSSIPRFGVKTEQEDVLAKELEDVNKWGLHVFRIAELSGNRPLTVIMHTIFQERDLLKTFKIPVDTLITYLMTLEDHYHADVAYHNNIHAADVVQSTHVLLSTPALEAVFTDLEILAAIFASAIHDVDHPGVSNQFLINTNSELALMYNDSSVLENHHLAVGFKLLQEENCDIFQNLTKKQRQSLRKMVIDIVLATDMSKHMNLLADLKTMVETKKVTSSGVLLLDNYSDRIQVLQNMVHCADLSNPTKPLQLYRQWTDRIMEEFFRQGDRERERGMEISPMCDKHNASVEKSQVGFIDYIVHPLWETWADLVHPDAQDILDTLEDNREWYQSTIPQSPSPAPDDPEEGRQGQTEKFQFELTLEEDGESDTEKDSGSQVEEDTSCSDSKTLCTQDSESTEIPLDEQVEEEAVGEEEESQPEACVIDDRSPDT
Kind of data set: Inhibition of PDE4 isozymes ([3H]cAMP SPA): PDE4D. The format is biochemical. To be noted: @ 0.1 μg/ml, pH 7.4 Tris buffer. The method, then:
as §1

Data set [2] has as its system production of TNF-α in mice stimulated with LPS. Description: In vivo inhibition of TNF-α production in mice stimulated with LPS. To be noted: Mus musculus, 2 h, LPS i.p., plasma at hour 2, read-out: % Inhibition of in vivo TNF-α production @ dose; for inhibition in vivo at 3 mg/kg: 3 mg/kg oral gavage. The method, then:
[J. Pharmacol. Exp. Therapeut. vol 279, 1453-1461 (1996)] In brief, either a compound of the instant invention with vehicle or vehicle only (5% Tween 80) was administered by oral gavage (10 ml/kg body weight) at hour 0 to mice (Balb/C or ICR, 25˜30 g) fasted overnight. The mice were subjected to a peritoneal injection with […] LPS per mouse at hour 0.5, and blood was drawn from the abdominal vein at hour 2 following euthanasia with CO2. Then plasma separated from the drawn blood by centrifugation was subjected to an ELISA assay to measure the level of TNF-α.

Data set [3] deals with cAMP degradation in U937 cells. Description: In vitro inhibition of cAMP degradation in U937 cells (forskolin, cAMP EIA). The following applies: Homo sapiens, U-937, 10 μM forskolin. The format is cell-based. How it is done: In vitro Inhibition of cAMP Degradation in U937 Cells: Compounds of this invention were evaluated for their ability to inhibit in cells the hydrolysis of cAMP induced by forskolin, an adenylate cyclase stimulator. In brief, 3×10^5 U937 cells per well on a 96-well plate were incubated for 10 min at 37° C. in 200 μl RPMI-1640 containing 10% FBS, which was followed by treatment of either DMSO or a DMSO stock solution of a compound of the present invention at a designated dose. Then the cells were stimulated with 10 μM forskolin for 10 min at 37° C. The plate was centrifuged for 5 min at 1500 rpm. 120 μl of the supernatant was carefully removed from each well and 200 μl of lysis agent 1B was added to the well. Then the cell lysate was assayed to determine the level of cAMP by enzyme immunoassay (EIA) using a cAMP EIA kit from Amersham Pharmacia Biotech (Kit #RPN225). IC50's were determined for compounds of this invention from dose response curves for cAMP levels.

Data set [4] concerns production of TNF-α in human PBMCs. Description: Inhibition of TNF-α production in human PBMCs (ELISA). The format is cell-based. To be noted: PBMC. The method, then:
as §2
Inhibition of TNF-α Production in Human PBMCs: Compounds of the present invention were evaluated for their ability to inhibit the production of TNF-α in human PBMCs as described in the literature. [J. Med. Chem. vol 39, 3238-3240 (1996)] Blood was freshly drawn from healthy human subjects as treated with ACD to isolate human PBMCs according to the procedure employed for rat PBMCs. The employed assay method for the ELISA against human TNF-α was essentially identical to that for the rat TNF-α ELISA assay.

Data set [5] relates to colitis induced by dextran sulfate sodium (DSS) in Balb/c mice. Kind of data set: DSS-induced colitis in mice. The format is in vivo. To be noted: 50 mg/kg BID oral, day 11, p>0.05.
Experimental: Therapeutic Effect in DSS-induced Colitis: Compounds of the present invention were evaluated for their ability to treat colitis induced by dextran sulfate sodium (DSS) in mice according to the literature. […] In brief, female Balb/c mice weighing 16-20 g were randomized into groups (5˜6 per group) and were allowed from day 1 free access to water containing 5% DSS. A compound of this invention or sulfasalazine in 5% Tween 80 at 10 ml/kg was orally administered twice a day. Clinical activity score of each animal was measured on a daily basis by evaluating the stool consistency, body weight and rectal bleeding.

SMILES strings stand for the structures. ≈ marks a conversion by molar mass, not a printed value.

T1 sequence (P27815 whole entry): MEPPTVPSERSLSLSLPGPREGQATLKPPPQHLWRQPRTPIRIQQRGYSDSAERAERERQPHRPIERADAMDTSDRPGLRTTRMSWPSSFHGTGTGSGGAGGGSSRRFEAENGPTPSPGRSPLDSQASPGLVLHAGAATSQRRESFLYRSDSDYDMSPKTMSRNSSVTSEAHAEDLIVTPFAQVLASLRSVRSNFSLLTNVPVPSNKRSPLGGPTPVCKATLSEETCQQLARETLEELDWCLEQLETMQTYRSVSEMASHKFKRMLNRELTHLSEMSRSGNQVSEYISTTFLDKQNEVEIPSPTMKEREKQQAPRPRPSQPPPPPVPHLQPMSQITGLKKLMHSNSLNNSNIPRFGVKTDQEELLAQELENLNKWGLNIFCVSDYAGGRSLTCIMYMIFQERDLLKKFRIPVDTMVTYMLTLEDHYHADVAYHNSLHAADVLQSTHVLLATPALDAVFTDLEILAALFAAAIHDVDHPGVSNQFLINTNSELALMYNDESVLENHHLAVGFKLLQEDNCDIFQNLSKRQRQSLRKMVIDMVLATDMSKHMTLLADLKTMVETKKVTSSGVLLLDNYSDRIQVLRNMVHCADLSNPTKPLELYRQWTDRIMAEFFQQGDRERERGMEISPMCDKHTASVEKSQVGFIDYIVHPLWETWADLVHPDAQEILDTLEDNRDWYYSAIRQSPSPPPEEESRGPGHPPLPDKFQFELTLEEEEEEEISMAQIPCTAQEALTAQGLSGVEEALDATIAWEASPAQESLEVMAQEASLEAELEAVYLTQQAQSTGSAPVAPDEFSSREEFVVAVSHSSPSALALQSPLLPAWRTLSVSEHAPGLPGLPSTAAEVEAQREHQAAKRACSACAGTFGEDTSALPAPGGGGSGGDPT

For the compound `ON=C1CCC(C2CCCC2)=C1c1ccc(F)cc1` [Example 1, 3-cyclopentyl-2-(4-fluorophenyl)-2-cyclopenten-1-one oxime], the melting point (commonly the temperature, or range, at which the solid turns liquid) lay in the range of 204 to 205 °C. Testing at 0.5 µg/mL against PDE4A gave an inhibition of 72%. For the same compound, in data set [1], the IC50 (in general, the point on the concentration scale where inhibition reaches its midpoint) came out at 0.12 µg/mL. Besides, on PDE4D, the inhibition (commonly the relative decrease from the control value, in per cent) at 0.1 µg/mL came out at 79%. Moreover, the inhibition in vivo (usually how much of the control response was suppressed) at 3 mg/kg in data set [2] was determined as 72%.
`ON=C1CCC(C2CCCC2)=C1c1ccc(F)c(F)c1` [Example 2, 3-cyclopentyl-2-(3,4-difluorophenyl)-2-cyclopenten-1-one oxime] had a melting point of 173 to 174 °C. Besides, in data set [1], the IC50 was found to be 0.035 µg/mL. In data set [3], this compound gave an IC50 of 0.1 µg/mL (≈ 0.361 µM). The inhibition in vivo at 0.3 mg/kg in data set [2] (0.3 mg/kg oral gavage) was 78%. The compound also had an IC50 in data set [4] of 0.072 µg/mL (≈ 0.26 µM).
`ON=C1CCC(C2CCCC2)=C1c1ccc(F)c(Cl)c1` [Example 3, 2-(3-chloro-4-fluorophenyl)-3-cyclopentyl-2-cyclopenten-1-one oxime]: the melting point was in the range of 143 to 144 °C. Also, testing at 0.5 µg/mL against PDE4A gave an inhibition of 89%. Also, the IC50 in data set [1] stood at 0.053 µg/mL. On PDE4D, this compound registered an inhibition at 0.1 µg/mL of 78%.
On the same counts, the results for `ON=C1CCC(C2CCCC2)=C1c1ccc2c(c1)OCO2` [Example 10, 3-cyclopentyl-2-(3,4-methylenedioxyphenyl)-2-cyclopenten-1-one oxime] are 186 to 188 °C, 33%, 0.097 µg/mL and 38%.
Turning to `ON=C1CCC(C2CCCCC2)=C1c1ccc(F)c(Cl)c1` [Example 28, 2-(3-chloro-4-fluorophenyl)-3-cyclohexyl-2-cyclopenten-1-one oxime], the melting point was 158 to 160 °C. Besides, at 0.5 µg/mL the inhibition against PDE4A was 58%. Besides, the IC50 in data set [1] was determined as 0.13 µg/mL. For the same compound, testing at 0.1 µg/mL against PDE4D gave an inhibition of 87%. Also, the inhibition in vivo at 3 mg/kg in data set [2] stood at 88%.
`CCCCC1=C(c2ccc3c(c2)OCO3)C(=NO)CC1` [Example 45, 3-butyl-2-(3,4-methylenedioxyphenyl)-2-cyclopenten-1-one oxime] displayed a melting point of 116 to 120 °C. The IC50 in data set [1] is 0.69 µg/mL. The compound further showed an IC50 in data set [3] of 0.87 µg/mL (≈ 3.18 µM). Moreover, in data set [2] (1 mg/kg oral gavage), the inhibition in vivo at 1 mg/kg was determined as 42%. The compound also had an IC50 in data set [4] of 0.8 µg/mL (≈ 2.93 µM).
The compound `CCCC1=C(c2ccc(F)c(F)c2)C(=NO)CC1` [Example 79, 2-(3,4-difluorophenyl)-3-propyl-2-cyclopenten-1-one oxime] came in with a melting point of 136 to 137 °C. On PDE4A, this compound registered an inhibition at 0.5 µg/mL of 0%. Further, the IC50 in data set [1] is 0.18 µg/mL. The compound further registered an inhibition at 0.1 µg/mL against PDE4D of 23%. Besides, the inhibition in vivo at 3 mg/kg in data set [2] stood at 85%.
With `COc1ccc(C2CNC(=O)C2)cc1OC1CCCC1` (centres unmarked) [Rolipram, rolipram, reference compound], the IC50 in data set [1] was 0.05 to 0.1 µg/mL; in data set [3], 0.27 µg/mL (≈ 0.981 µM); in data set [4] it was 0.01 to 0.1 µg/mL (≈ 0.0363 to 0.363 µM). The inhibition in vivo at 0.2 mg/kg in data set [2] (0.2 mg/kg oral gavage) was roughly 50%.
In the case of `O=C(O)c1cc(/N=N/c2ccc(S(=O)(=O)Nc3ccccn3)cc2)ccc1O` [sulfasalazine], the “improvement in the clinical score activity from the control group” value in data set [5] is given as 19%.
